Among the data in patent publication US7592336B2, “Hepatitis C virus inhibitors” (Bristol-Myers Squibb Company, priority 2005, dated 2009) are IC50 and EC50 values, retold here.

In experiment [1] the target is T1, HCV NS3/4A protease complex, BMS strain (UniProt P27958, species not given/STRAIN_BMS).
T1 construct: said of H77 and J4L6S, not expressly of BMS; fused on or other part: A three-lysine solubilising tail at the NS4A C-terminus and purification on Ni-NTA are described for the H77 and J4L6S constructs
Description: FRET peptide assay to monitor HCV NS3/4A proteolytic activity (BMS strain). The format is biochemical, HCV genotype 1a. The following applies: NS3/4A BMS strain; read-out: Activity Range (IC50). From the text:
HCV NS3 protease complexes, derived from the BMS strain, H77 strain or J4L6S strain, were generated, as described below. These purified recombinant proteins were generated for use in a homogeneous assay (see below) to provide an indication of how effective compounds of the present disclosure would be in inhibiting HCV NS3 proteolytic activity.
Serum from an HCV-infected patient was obtained from Dr. T. Wright, San Francisco Hospital. An engineered full-length cDNA (compliment deoxyribonucleic acid) template of the HCV genome (BMS strain) was constructed from DNA fragments obtained by reverse transcription-PCR (RT-PCR) of serum RNA (ribonucleic acid) and using primers selected on the basis of homology between other genotype 1a strains. From the determination of the entire genome sequence, a genotype 1a was assigned to the HCV isolate according to the classification of Simmonds et al. (See P Simmonds, K A Rose, S Graham, S W Chan, F McOmish, B C Dow, E A Follett, P L Yap and H Marsden, J. Clin. Microbiol., 31(6), 1493-1503 (1993)). […] The infectious clones, H77 (1a genotype) and J4L6S (1b genotype) were obtained from R. Purcell (NIH) and the sequences are published in Genbank (AAB67036, see Yanagi, M., Purcell, R. H., Emerson, S. U. and Bukh, J. Proc. Natl. Acad. Sci. U.S.A. 94(16), 8738-8743 (1997); AF054247, see Yanagi, M., St Claire, M., Shapiro, M., Emerson, S. U., Purcell, R. H. and Bukh, J, Virology 244 (1), 161-172. (1998)).
NS3/4A protease complex-containing fractions were pooled and loaded on a desalting column Superdex-S200 pre-equilibrated with buffer D (25 mM HEPES, pH 7.5, 20% glycerol, 300 mM NaCl, 0.2% Triton X-100, 10 mM βME). Sample was loaded at a flow rate of 1 mL/min. NS3/4A protease complex-containing fractions were pooled and concentrated to approximately 0.5 mg/ml. The purity of the NS3/4A protease complexes, derived from the BMS, H77 and J4L6S strains, were judged to be greater than 90% by SDS-PAGE and mass spectrometry analyses. The enzyme was stored at −80° C., thawed on ice and diluted prior to use in assay buffer.
The purpose of this in vitro assay was to measure the inhibition of HCV NS3 protease complexes, derived from the BMS strain, H77 strain or J4L6S strain, as described above, by compounds of the present disclosure. This assay provides an indication of how effective compounds of the present disclosure would be in inhibiting HCV NS3 proteolytic activity.
In order to monitor HCV NS3/4A protease activity, an NS3/4A peptide substrate was used. The substrate was RET S1 (Resonance Energy Transfer Depsipeptide Substrate; AnaSpec, Inc. cat #22991) (FRET peptide), described by Taliani et al. in Anal. Biochem. 240(2):60-67 (1996). The sequence of this peptide is loosely based on the NS4A/NS4B natural cleavage site for the HCV NS3 protease except there is an ester linkage rather than an amide bond at the cleavage site. The peptide also contains a fluorescence donor, EDANS, near one end of the peptide and an acceptor, DABCYL, near the other end. The fluorescence of the peptide is quenched by […] resonance energy transfer (RET) between the donor and the acceptor, but as the NS3 protease cleaves the peptide the products are released from RET quenching and the fluorescence of the donor becomes apparent.
The peptide substrate was incubated with one of the three recombinant NS3/4A protease complexes, in the absence or presence of a compound of the present disclosure. The inhibitory effects of a compound were determined by monitoring the formation of fluorescent reaction product in real time using a Cytofluor Series 4000.
Assay buffer: 50 mM HEPES, pH 7.5; 0.15M NaCl; 0.1% Triton; 15% Glycerol; 10 mM βME. Substrate: 2 μM final concentration (from a 2 mM stock solution in DMSO stored at −20° C.). HCV NS3/4A protease type 1a (1b), 2-3 nM final concentration (from a 5 μM stock solution in 25 mM HEPES, pH 7.5, 20% glycerol, 300 mM NaCl, 0.2% Triton-X100, 10 mM βME). […]

In experiment [2] the test system is HCV replicon in HUH-7 cells. Kind of experiment: HCV replicon FRET assay. The format is cell-based, HCV strain 1b. The following applies: Hepatitis C virus, Huh-7; HCV replicon cell assay; read-out: Activity Range (EC50). An excerpt:
An HCV replicon whole cell system was established as described by Lohmann V, Korner F, Koch J, Herian U, Theilmann L, Bartenschlager R., Science 285(5424):110-3 (1999). This system enabled us to evaluate the effects of our HCV Protease compounds on HCV RNA replication. Briefly, using the HCV strain 1b sequence described in the Lohmann paper (Assession number: AJ238799), an HCV cDNA was synthesized by Operon Technologies, Inc. (Alameda, Calif.), and the full-length replicon was then assembled in plasmid pGem9zf(+) (Promega, Madison, Wis.) using standard molecular biology techniques. The replicon consists of (i) the HCV 5′ UTR fused to the first 12 amino acids of the capsid protein, (ii) the neomycin phosphotransferase gene (neo), (iii) the IRES from encephalomyocarditis virus (EMCV), and (iv) HCV NS3 to NS5B genes and the HCV 3′ UTR. Plasmid DNAs were linearized with ScaI and RNA transcripts were synthesized in vitro using the T7 MegaScript transcription kit (Ambion, Austin, Tex.) according to manufacturer's directions. In vitro transcripts of the cDNA were transfected into the human hepatoma cell line, HUH-7. […] Resulting cell lines were characterized for positive and negative strand RNA production and protein production over time.
The HCV replicon FRET assay was developed to monitor the inhibitory effects of compounds described in the disclosure on HCV viral replication. HUH-7 cells, constitutively expressing the HCV replicon, were grown in Dulbecco's Modified Eagle Media (DMEM) (Gibco-BRL) containing 10% Fetal calf serum (FCS) (Sigma) and 1 mg/ml G418 (Gibco-BRL). Cells were seeded the night before (1.5×10^4 cells/well) in 96-well tissue-culture sterile plates. Compound and no compound controls were prepared in DMEM containing 4% FCS, 1:100 Penicillin/Streptomysin (Gibco-BRL), 1:100 L-glutamine and 5% DMSO in the dilution plate (0.5% DMSO final concentration in the assay). Compound/DMSO mixes were added to the cells and incubated for 4 days at 37° C. After 4 days, cells were first assessed for cytotoxicity using alamar Blue (Trek Diagnotstic Systems) for a CC50 reading. The toxicity of compound (CC50) was determined by adding 1/10th volume of alamar Blue to the media incubating the cells. After 4 h, the fluorescence signal from each well was read, with an excitation wavelength at 530 nm and an emission wavelength of 580 nm, using the Cytofluor Series 4000 (Perspective Biosystems). Plates were then rinsed thoroughly with Phosphate-Buffered Saline (PBS) (3 times 150 μl). The cells were lysed with 25 μl of a lysis assay reagent containing an HCV protease substrate (5× cell Luciferase cell culture lysis reagent (Promega #E153A) diluted to 1× with distilled water, NaCl added to 150 mM final, the FRET peptide substrate (as described for the enzyme assay above) diluted to 10 μM final from a 2 mM stock in 100% DMSO. […]. The plate was then placed into the Cytofluor 4000 instrument which had been set to 340 nm excitation/490 nm emission, automatic mode for 21 cycles and the plate read in a kinetic mode. EC50 determinations were carried out as described for the IC50 determinations.
(Replicon systems follow genome replication, usually without infectious particles.)

For orientation: IC50 means the midpoint of a concentration-inhibition curve. In general, EC50 refers to the concentration that produces a half-maximal response.

T1 sequence (P27958 1027-1657, change not shown, one chain of several): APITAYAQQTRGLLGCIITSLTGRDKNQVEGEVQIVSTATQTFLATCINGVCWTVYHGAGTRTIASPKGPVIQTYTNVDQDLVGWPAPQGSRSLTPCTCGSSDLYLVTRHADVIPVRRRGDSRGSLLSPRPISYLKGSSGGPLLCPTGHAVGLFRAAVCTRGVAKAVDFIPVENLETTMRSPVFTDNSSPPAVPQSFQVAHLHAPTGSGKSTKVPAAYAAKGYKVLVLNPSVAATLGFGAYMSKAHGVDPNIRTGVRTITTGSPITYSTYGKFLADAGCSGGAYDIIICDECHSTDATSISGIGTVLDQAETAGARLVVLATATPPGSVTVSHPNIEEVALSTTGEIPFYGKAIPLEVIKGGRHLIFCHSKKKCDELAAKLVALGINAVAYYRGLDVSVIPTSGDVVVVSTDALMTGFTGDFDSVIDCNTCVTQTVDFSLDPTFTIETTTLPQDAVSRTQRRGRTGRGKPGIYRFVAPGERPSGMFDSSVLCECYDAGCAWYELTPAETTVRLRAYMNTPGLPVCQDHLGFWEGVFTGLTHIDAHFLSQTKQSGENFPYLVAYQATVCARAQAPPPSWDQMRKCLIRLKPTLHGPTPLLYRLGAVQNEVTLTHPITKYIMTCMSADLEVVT

`C=C[C@@H]1C[C@]1(NC(=O)[C@@H]1C[C@@](O)(c2ccccc2CN2CCOCC2)CN1C(=O)[C@@H](NC(=O)OC(C)(C)C)C(C)(C)C)C(=O)NS(=O)(=O)C1CC1` [Compound 20]: the IC50 in experiment [1] fell in the range of 0.1 to 1 µM. Besides, the EC50 in experiment [2] was 1 to 10 µM.
As to `C=C[C@@H]1C[C@]1(NC(=O)[C@@H]1C[C@@](O)(c2cc(C)cc(C)c2)CN1C(=O)[C@@H](NC(=O)OC(C)(C)C)C(C)(C)C)C(=O)NS(=O)(=O)C1CC1` [Compound 21], in experiment [1], the half-inhibitory concentration (IC50) lay in the range of 0.001 to 0.1 µM. The EC50 in experiment [2] was in the range of 1 to 10 µM.
Take `C=C[C@@H]1C[C@]1(NC(=O)[C@@H]1C[C@@](O)(c2ccc(F)c(C)c2)CN1C(=O)[C@@H](NC(=O)OC(C)(C)C)C(C)(C)C)C(=O)NS(=O)(=O)C1CC1` [Compound 22]: the IC50 in experiment [1] is 0.1 to 1 µM. Moreover, the EC50 in experiment [2] fell in the range of 1 to 10 µM.
Turning to `C=C[C@@H]1C[C@]1(NC(=O)[C@@H]1C[C@@](O)(c2ccc(C)c(F)c2)CN1C(=O)[C@@H](NC(=O)OC(C)(C)C)C(C)(C)C)C(=O)NS(=O)(=O)C1CC1` [Compound 23], the IC50 in experiment [1] lay within 0.1 to 1 µM. The EC50 in experiment [2] was in the range of 1 to 10 µM.
Take `C=C[C@@H]1C[C@]1(NC(=O)[C@@H]1C[C@@](O)(c2cc(C)ccc2C)CN1C(=O)[C@@H](NC(=O)OC(C)(C)C)C(C)(C)C)C(=O)NS(=O)(=O)C1CC1` [Compound 24]: the IC50 in experiment [1] lay within 0.1 to 1 µM. Also, in experiment [2], the EC50 was 1 to 10 µM.
Regarding `C=C[C@@H]1C[C@]1(NC(=O)[C@@H]1C[C@@](O)(c2cc(F)ccc2OC)CN1C(=O)[C@@H](NC(=O)OC(C)(C)C)C(C)(C)C)C(=O)NS(=O)(=O)C1CC1` [Compound 25], the IC50 in experiment [1] was 0.1 to 1 µM. Moreover, the EC50 in experiment [2] fell in the range of 1 to 10 µM.
